# Test results as given in PubChem BioAssay AID328 (DTP/NCI, 2004).
# Values joined by “and” are separate entries in the source; they are usually repeats but may differ in a detail not shown here. Equal values may be shown once. Toxic doses and inconclusive results are not listed.
# System: BDF1 mice, P388 leukemia ip, median survival T/C
# Assay: NCI In Vivo Anticancer Drug Screen. Data for tumor model P388 Leukemia (intraperitoneal) in B6D2F1 (BDF1) mice
# Conditions: endpoint: median survival time, higher = longer survival
# In short: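 Compound-treated tumour-bearing mice were compared with vehicle-treated controls. Survival was recorded, and the value is the treated-group measurement divided by the control-group measurement (T/C).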
# [1] = dose: 100.0 mg/kg/injection, schedule: Q01DX009 (ip), vehicle: saline with Tween-80
# [2] = dose: 100.0 mg/kg/injection, schedule: Q04DX003 (ip), vehicle: saline with Tween-80
# [3] = dose: 200.0 mg/kg/injection, schedule: Q01DX009 (ip), vehicle: saline with Tween-80
# [4] = dose: 200.0 mg/kg/injection, schedule: Q04DX003 (ip), vehicle: saline with Tween-80
# [5] = dose: 50.0 mg/kg/injection, schedule: Q04DX003 (ip), vehicle: saline sonified
# [6] = dose: 100.0 mg/kg/injection, schedule: Q04DX003 (ip), vehicle: saline sonified
# [7] = dose: 400.0 mg/kg/injection, schedule: Q04DX003 (ip), vehicle: saline with Tween-80
# [8] = dose: 50.0 mg/kg/injection, schedule: Q04DX003 (ip), vehicle: saline
# [9] = dose: 12.5 mg/kg/injection, schedule: Q01DX009 (ip), vehicle: saline
# [10] = dose: 25.0 mg/kg/injection, schedule: Q01DX009 (ip), vehicle: saline
structure (smiles),measurement,setting,value
CN(C)c1ccc(C(=O)NN)cc1,T/C,"dose: 6.25 mg/kg/injection, schedule: Q01DX009 (ip), vehicle: saline with Tween-80",91 % of control
same,T/C,"dose: 12.5 mg/kg/injection, schedule: Q01DX009 (ip), vehicle: saline with Tween-80",91 % of control
same,T/C,"dose: 25.0 mg/kg/injection, schedule: Q01DX009 (ip), vehicle: saline with Tween-80",122 % of control
same,T/C,"dose: 25.0 mg/kg/injection, schedule: Q04DX003 (ip), vehicle: saline with Tween-80",100 % of control
same,T/C,"dose: 50.0 mg/kg/injection, schedule: Q01DX009 (ip), vehicle: saline with Tween-80",115 % of control
same,T/C,"dose: 50.0 mg/kg/injection, schedule: Q04DX003 (ip), vehicle: saline with Tween-80",98 % of control
same,T/C,[1],121 % of control
same,T/C,[2],107 % of control
same,T/C,[3],100 % of control
same,T/C,[4],109 % of control
same,T/C,"dose: 300.0 mg/kg/injection, schedule: Q01DX009 (ip), vehicle: saline with Tween-80",106 % of control
CC[C@@]1(O)C[C@H](OC2CC(N(C)C)C(OC3CC(O)C(OC4CCC(=O)C(C)O4)C(C)O3)C(C)O2)c2c(cc3c(c2O)C(=O)c2c(O)ccc(O)c2C3=O)[C@H]1C(=O)OC (some centres undefined),T/C,"dose: 0.39 mg/kg/injection, schedule: Q01DX009 (ip), vehicle: water",111 % of control
same,T/C,"dose: 0.5 mg/kg/injection, schedule: Q01DX003 (ip), vehicle: saline",163 % of control
same,T/C,"dose: 0.5 mg/kg/injection, schedule: Q01DX009 (ip), vehicle: water",117 % of control
same,T/C,"dose: 0.65 mg/kg/injection, schedule: Q01DX009 (ip), vehicle: water",152 % of control
same,T/C,"dose: 0.75 mg/kg/injection, schedule: Q01DX010 (ip), vehicle: saline",170 % of control
same,T/C,"dose: 1.0 mg/kg/injection, schedule: Q01DX003 (ip), vehicle: saline",190 % of control
same,T/C,"dose: 1.0 mg/kg/injection, schedule: Q01DX009 (ip), vehicle: saline",154 % of control
same,T/C,"dose: 1.0 mg/kg/injection, schedule: Q01DX009 (ip), vehicle: water",86 % of control
same,T/C,"dose: 1.0 mg/kg/injection, schedule: Q04DX003 (ip), vehicle: water",102 % of control
same,T/C,"dose: 1.08 mg/kg/injection, schedule: Q01DX009 (ip), vehicle: water",177 % of control and 180 % of control
same,T/C,"dose: 1.5 mg/kg/injection, schedule: Q01DX010 (ip), vehicle: saline",175 % of control
same,T/C,"dose: 1.73 mg/kg/injection, schedule: Q04DX003 (ip), vehicle: other",155 % of control
same,T/C,"dose: 1.8 mg/kg/injection, schedule: Q01DX009 (ip), vehicle: water",225 % of control and 200 % of control
same,T/C,"dose: 2.0 mg/kg/injection, schedule: Q01DX003 (ip), vehicle: saline",109 % of control
same,T/C,"dose: 2.0 mg/kg/injection, schedule: Q01DX009 (ip), vehicle: saline",191 % of control
same,T/C,"dose: 2.0 mg/kg/injection, schedule: Q01DX009 (ip), vehicle: water",90 % of control
same,T/C,"dose: 2.0 mg/kg/injection, schedule: Q04DX003 (ip), vehicle: water",119 % of control
same,T/C,"dose: 2.88 mg/kg/injection, schedule: Q04DX003 (ip), vehicle: other",186 % of control
same,T/C,"dose: 3.0 mg/kg/injection, schedule: Q01DX010 (ip), vehicle: saline",90 % of control
same,T/C,"dose: 4.8 mg/kg/injection, schedule: Q04DX003 (ip), vehicle: other",109 % of control
same,T/C,"dose: 5.0 mg/kg/injection, schedule: Q04DX003 (ip), vehicle: water",203 % of control
same,T/C,"dose: 8.44 mg/kg/injection, schedule: Q01DX001 (ip), vehicle: water",158 % of control
same,T/C,"dose: 10.0 mg/kg/injection, schedule: Q04DX003 (ip), vehicle: water",88 % of control
same,T/C,"dose: 11.25 mg/kg/injection, schedule: Q01DX001 (ip), vehicle: water",152 % of control
same,T/C,"dose: 13.33 mg/kg/injection, schedule: Q04DX003 (ip), vehicle: water",117 % of control
same,T/C,"dose: 15.0 mg/kg/injection, schedule: Q01DX001 (ip), vehicle: water",100 % of control
same,T/C,"dose: 20.0 mg/kg/injection, schedule: Q01DX001 (ip), vehicle: water",50 % of control
CC1CC(C)(C)N=C(CCC[N+](=O)[O-])O1 (centres undefined),T/C,[5],105 % of control
same,T/C,[6],105 % of control
same,T/C,"dose: 200.0 mg/kg/injection, schedule: Q04DX003 (ip), vehicle: saline sonified",105 % of control
C(=N\n1cnnc1)/c1ccc(/C=N/n2cnnc2)cc1,T/C,"dose: 100.0 mg/kg/injection, schedule: Q01DX001 (ip), vehicle: saline",118 % of control
same,T/C,"dose: 200.0 mg/kg/injection, schedule: Q01DX001 (ip), vehicle: saline",104 % of control
same,T/C,"dose: 400.0 mg/kg/injection, schedule: Q01DX001 (ip), vehicle: saline",95 % of control
CCOC(=O)CCc1nc(C(=O)OCC)c(C)c(=O)[nH]1,T/C,[2],107 % of control
same,T/C,[4],103 % of control
same,T/C,[7],100 % of control
CC(Cc1ccc(O)c(O)c1)C(C)Cc1ccc(O)c(O)c1 (centres undefined),T/C,"dose: 50.0 mg/kg/injection, schedule: Q01DX010 (ip), vehicle: saline",100 % of control
same,T/C,"dose: 100.0 mg/kg/injection, schedule: Q01DX010 (ip), vehicle: saline",104 % of control
same,T/C,"dose: 200.0 mg/kg/injection, schedule: Q01DX010 (ip), vehicle: saline",104 % of control
CCCCCCC(C)NN (centres undefined),T/C,"dose: 12.5 mg/kg/injection, schedule: Q04DX003 (ip), vehicle: saline",98 % of control
same,T/C,"dose: 25.0 mg/kg/injection, schedule: Q04DX003 (ip), vehicle: saline",105 % of control
same,T/C,[8],107 % of control
CCCCCCCCCCCC(=O)c1ccc(Cl)cc1,T/C,[1],91 % of control
same,T/C,[3],92 % of control
same,T/C,"dose: 400.0 mg/kg/injection, schedule: Q01DX009 (ip), vehicle: saline with Tween-80",109 % of control
CN(C)[C@@H]1C(=O)C(C(N)=O)=C(O)[C@@]2(O)C(=O)C3=C(O)c4c(O)cccc4C[C@H]3C[C@@H]12,T/C,"dose: 3.75 mg/kg/injection, schedule: Q01DX010 (ip), vehicle: water",100 % of control
same,T/C,"dose: 7.5 mg/kg/injection, schedule: Q01DX010 (ip), vehicle: saline",120 % of control
same,T/C,"dose: 7.5 mg/kg/injection, schedule: Q01DX010 (ip), vehicle: water",118 % of control
same,T/C,"dose: 15.0 mg/kg/injection, schedule: Q01DX010 (ip), vehicle: saline",120 % of control
same,T/C,"dose: 20.0 mg/kg/injection, schedule: Q01DX010 (oral), vehicle: water",109 % of control
same,T/C,"dose: 35.0 mg/kg/injection, schedule: Q01DX010 (oral), vehicle: water",100 % of control
same,T/C,"dose: 50.0 mg/kg/injection, schedule: Q01DX010 (oral), vehicle: water",100 % of control
same,T/C,"dose: 60.0 mg/kg/injection, schedule: Q01DX010 (ip), vehicle: saline",100 % of control
same,T/C,"dose: 65.0 mg/kg/injection, schedule: Q01DX010 (oral), vehicle: water",109 % of control
same,T/C,"dose: 80.0 mg/kg/injection, schedule: Q01DX010 (oral), vehicle: water",90 % of control
O=C1CCc2c(Br)cccc21,T/C,[2],110 % of control
same,T/C,[4],115 % of control
same,T/C,[7],110 % of control
CC1(C)N=C(N)N=C(N)N1c1ccc(OCCCOc2ccc(S(=O)(=O)F)cc2)c(Cl)c1,T/C,"dose: 0.66 mg/kg/injection, schedule: Q01DX009 (ip), vehicle: saline",108 % of control
same,T/C,"dose: 0.99 mg/kg/injection, schedule: Q01DX009 (ip), vehicle: saline",104 % of control
same,T/C,[9],165 % of control
same,T/C,[10],115 % of control
same,T/C,"dose: 33.0 mg/kg/injection, schedule: Q04DX003 (ip), vehicle: saline",109 % of control and 120 % of control
same,T/C,[8],114 % of control and 120 % of control
same,T/C,"dose: 75.0 mg/kg/injection, schedule: Q04DX003 (ip), vehicle: saline",114 % of control
NC1C=CC(CCC(N)C(=O)O)C=C1 (centres undefined),T/C,[9],100 % of control
same,T/C,[10],100 % of control and 105 % of control
same,T/C,"dose: 50.0 mg/kg/injection, schedule: Q01DX009 (ip), vehicle: saline",100 % of control
same,T/C,"dose: 100.0 mg/kg/injection, schedule: Q01DX009 (ip), vehicle: saline",110 % of control
CC(=O)Nc1ccc2ccc(Cl)nc2n1,T/C,"dose: 100.0 mg/kg/injection, schedule: Q04DX003 (ip), vehicle: saline",95 % of control
same,T/C,"dose: 200.0 mg/kg/injection, schedule: Q04DX003 (ip), vehicle: saline",100 % of control
same,T/C,"dose: 400.0 mg/kg/injection, schedule: Q04DX003 (ip), vehicle: saline",104 % of control
Cc1nc([N+](=O)[O-])cn1CC/C(N)=N/O,T/C,[2],108 % of control
same,T/C,[4],105 % of control
same,T/C,[7],115 % of control
CCC12CCCN3C(=O)CC(C(=O)CC1)C32 (centres undefined),T/C,"dose: 25.0 mg/kg/injection, schedule: Q04DX003 (ip), vehicle: saline sonified",95 % of control
same,T/C,[5],109 % of control
same,T/C,[6],109 % of control
